# Measured values taken from patent US20030044797A1, “Detection of CYP2D6 polymorphisms” (priority 2000, published 2003).
# Tested on: CYP2D6 enzyme
# Assay: debrisoquine metabolic ratio (MR) phenotyping of study participants, correlated with CYP2D6 5′ flanking region haplotypes
# Assay type: in vivo, human
# Procedure: The study was performed in accordance with the principles stated in the Declaration of Helsinki as reviewed in Tokyo 1975 and Venice 1983, Hong Kong 1989 and Somerset West 1996. Subjects were preferably not related to each other. Based on questioning, individuals having one of the following were excluded: a medical condition judged to influence liver function or requiring pharmacological treatment; any on-going disease; intake of any drug, except oral contraceptives, during one week prior to the study; breast-feeding or pregnancy. No physical examination was performed. For these experiments, a single oral dose of 10 mg debrisoquine (Declinax, Hoffman-LaRoche) was taken in the evening before bed-time. The bladder was emptied before drug intake. All urine was then collected overnight (about 8 hours) A single blood sample was collected 3 hours after drug intake.
# White blood cells isolated from a blood sample drawn from the brachial vein serve as the source of the genomic DNA for the analyses. The DNA was extracted by guanidine thiocyanate method or QlAamp Blood Kit (QIAGEN, Venlo, The Netherlands). The genes included in the study were amplified by PCR and the DNA sequences were determined by the technology most suitable for the specific fragment. […] Case Report Forms were designed and used for clinical and genetic data collection. Data was entered and stored in a relational database at Gemini Genomics AB, Uppsala. To secure consistency between the Case Report Forms and the database, data was checked either by double data entry or proofreading. After a Clean File was declared the database was protected against changes. By using the program Stat/Transfer™ the database was transferred to SAS data sets. The SAS™ system was used for tabulations and statistical evaluations. Genotypes and haplotypes were correlated against the metabolic ratio.
# This analysis was performed using software based on maximum likelihood methodology and using the EM algorithm of Excoffier et al. (1995), Mol Biol Evol. 12:921-927. […] From the haplotype information two different kinds of variables were created: one variable was formed as a haplotype combination variable (HTYPE). This variable has the value H1/H2 when the subject has haplotypes 1 and 2, etc. Variables H1, H2, H3 and H4 are haplotype annotations that denote the number of copies of that particular haplotype for the subject, e.g., for a subject with haplotype H1/H2 the variables H1, H2, H3 and H4 will be 1, 1, 0 and 0, respectively. Each of these variables can thus take on the values 0, 1 or 2. Only the four most frequent haplotypes were considered when those variables were formed.
smiles,measurement,setting,value
N=C(N)N1CCc2ccccc2C1 [debrisoquine],MR-range (min-max),HTYPE H1/H1,0.03-110
same,"MR (Debr), predicted metabolic ratio","HTYPE H1/H1, 89% (49/55) in MR-range",<0.8
same,MR-range (min-max),HTYPE H1/H2,0.06-1.04
same,"MR (Debr), predicted metabolic ratio","HTYPE H1/H2, 81% (52/64) in MR-range",<0.4
same,MR-range (min-max),HTYPE H1/H3,0.08-2.40
same,"MR (Debr), predicted metabolic ratio","HTYPE H1/H3, 74% (14/19) in MR-range",0.4-2.0
same,MR-range (min-max),HTYPE H1/H4,0.18-143
same,"MR (Debr), predicted metabolic ratio","HTYPE H1/H4, 74% (20/27) in MR-range",0.4-7.0
same,MR-range (min-max),HTYPE H2/H2,0.13-1.44
same,"MR (Debr), predicted metabolic ratio","HTYPE H2/H2, 89% (17/19) in MR-range",<0.8
same,MR-range (min-max),HTYPE H2/H3,0.13-2.29
same,"MR (Debr), predicted metabolic ratio","HTYPE H2/H3, 86% (6/7) in MR-range",0.2-7.0
same,MR-range (min-max),HTYPE H2/H4,0.33-3.70
same,"MR (Debr), predicted metabolic ratio","HTYPE H2/H4, 82% (14/17) in MR-range",0.4-2.0
same,MR-range (min-max),HTYPE H3/H3,0.85-5.17
same,"MR (Debr), predicted metabolic ratio","HTYPE H3/H3, 100% (3/3) in MR-range",0.8-7.0
same,MR-range (min-max),HTYPE H3/H4,1.46-6.54
same,"MR (Debr), predicted metabolic ratio","HTYPE H3/H4, 100% (5/5) in MR-range",0.8-7.0
same,MR-range (min-max),HTYPE H4/H4,26.3-236
same,"MR (Debr), predicted metabolic ratio","HTYPE H4/H4, 100% (16/16) in MR-range",>12.6
same,mr50 (metabolic ratio of the 50th percentile),"haplotype H1/H1, n = 53, single oral dose 10 mg debrisoquine",mr50 = 0.22
same,mr50 (metabolic ratio of the 50th percentile),"haplotype H1/—, n = 108",mr50 = 0.375
same,mr50 (metabolic ratio of the 50th percentile),"haplotype H2/H2, n = 19",mr50 = 0.3
same,mr50 (metabolic ratio of the 50th percentile),"haplotype H2/—, n = 88",mr50 = 0.335
same,mr50 (metabolic ratio of the 50th percentile),"haplotype H3/H3, n = 3",mr50 = 2.08
same,mr50 (metabolic ratio of the 50th percentile),"haplotype H3/—, n = 31",mr50 = 0.64
same,mr50 (metabolic ratio of the 50th percentile),"haplotype H4/H4, n = 16",mr50 = 88
same,mr50 (metabolic ratio of the 50th percentile),"haplotype H4/—, n = 49",mr50 = 0.86
same,mr50 (metabolic ratio of the 50th percentile),"no H1 copy (—/—), n = 71",mr50 = 0.87
same,mr50 (metabolic ratio of the 50th percentile),"no H2 copy (—/—), n = 125",mr50 = 0.56
same,mr50 (metabolic ratio of the 50th percentile),"no H3 copy (—/—), n = 198",mr50 = 0.34
same,mr50 (metabolic ratio of the 50th percentile),"no H4 copy (—/—), n = 167",mr50 = 0.27
